Measured values as given in patent publication US9949968B2, “Diarylalkylamine REV-ERB antagonists and their use as medicaments” (FONDAZIONE ISTITUTO ITALIANO DI TECNOLOGIA, priority 2013, dated 2018).
Where a name gives a salt, the structure may show the parent alone.

Tests used:
[1] = system: REV-ERB; experiment: Luciferase-based assay of REV-ERB mediated transcriptional regulation (RevRE/SV40-CLuc reporter in HEK-293 cells); type: cell-based; settings: HEK-293 cells transfected with RevRE reporter and REV-ERBα and/or β; read 24 h post-transfection; read-out: REV-ERB antagonism EC50
Source text: Luciferase-Base Assay to Assess the Activity of the Compounds on REV-ERB Mediated Transcriptional Regulation
In order to assess the effect of the compounds of the invention on REV-ERB activity the inventors exploited the ability of REV-ERB to repress gene transcription of a specific DNA cis-element. In fact, the DNA binding domain (DBD) of REV-ERB recognizes specific DNA sequences (called RevREs=Rev-erb Responsive Elements) which contains an AGGTCA motif linked in 5′ to an A/T rich sequence harboring the following consensus: A/T A A/T N T (Harding et al., Mol Cell Biol., 1993; 13:3113).
Therefore, two repetitions of the RevRE consensus AGAATGTAGGTCA (SEQ ID NO: 13) upstream a SV40 promoter driving the expression of a reporter gene were cloned. As reported, the luciferase enzyme from the ostracod Cypridina noctiluca was adopted. […] Cypridina luciferase (CLuc) is secreted from cells by virtue of its natural signal peptide and its luminescence can be measured from the supernatant of transfected cells. Therefore, cell lysis is not necessary. Secreted CLuc is a very stable protein. Because of this property, the activity measured from the supernatant reflects the amount of protein accumulated up to the time of sampling. Multiple samples can therefore be obtained from the same transfected cells, allowing an easy set-up of time-course experiments. In addition, the direct use of the supernatant makes the system easily prone to automation for High Throughput Screening.
In order to normalize the experiment for the transfection efficiency, it was used a plasmid containing a SV40 promoter driving the expression of a secreted form of human alkaline phosphatase (SEAP), which enzymatic activity in the supernatant can be measured with chemiluminescence substrates.
To be able to rule out false-positive, for example due to the interference of the compounds to be tested with the fluorescence and/or chemiluminescence reactions, it was used as control a mutated version of the RevRE (GAGCCCGTAGGTCA) (SEQ ID NO: 14) that is no longer able to bind REV-ERB DBD (Harding et al., Mol Cell Biol., 1993; 13:3113).
The person skilled in the art will appreciate that an agonist will improve the ability of REV-ERB to repress the transcription, reducing the luminescence signal, while an antagonist will produce the opposite effect.
For the assay, HEK-293 cells were transfected with the reporter vectors and a plasmid expressing the REV-ERBα and/or β protein. After 6 h from transfection, the medium was replaced with fresh medium containing different doses of the compounds or vehicle (DMSO). After 24 h post-transfection, the supernatant was analyzed for the secreted luciferase and AP activity according to the manufacture instruction. Data normalized as fold activation versus vehicle (DMSO) were fitted using a four-parameter dose-response curve to calculate the EC50 of the different compounds.
(§1) The different compounds were tested for their ability to inhibit the growth of the tumorigenic breast cancer cells BT-474 and for their antagonistic activity toward REV-ERB transcriptional repression, as described in the biological method section.
For the cell growth inhibition (GI) the growth inhibition 50 (GI50) and the growth inhibition max (GImax) are reported. […] The bottom plateaus of the curve was used to calculate the Growth Inhibition max (GImax), defined as the percentage of the reduction of cells after 48 h upon a saturating dose of the administered compound. Compounds with a GI50<100 μM were also tested for their antagonistic activity toward REV-ERB. […]

[2] = system: tumorigenic breast cancer cells BT-474; experiment: Growth inhibition assay (CyQUANT Cell Proliferation Assay) in BT-474 cells; type: cell-based; settings: Homo sapiens; for GI50: 48 h, CyQUANT, read-out: Cell Growth Inibition GI50; for Emax: reduction of cells after 48 h at saturating dose, read-out: Cell Growth Inibition GImax
Source text: Given that REV-ERB target genes include several metabolic regulators, such as Pgc-1α and Nampt, it was decided to test the cell proliferation with a method that is independent from the metabolic state of the cell.
The CyQUANT® Cell Proliferation Assay Kit (Invitrogen) was used, an assay that has a linear detection range extending from 50 or fewer to at least 250,000 cells.
Frozen cells are simply thawed and lysed by addition of a buffer containing the CyQUANT®.
For the assay, tumorigenic breast cancer cells BT-474 cells were seeded at 2500 cells per well in a 96-well plate and incubated over-night at 37° C. Then, fresh medium containing different concentration of the compounds or vehicle (DMSO) was added and cells were growth 48 h at 37° C. Finally, cells were frozen at […] and then processed according to the manufacture instructions. A minimum of triplicate data for each dose was used for the analysis.
Data were collected and analyzed with Prism 5 software to calculate the growth inhibition curve.
In particular, values obtained from the DMSO treated cells was set at 100% of growth. Data from treatment of cells with serial dilutions of the compounds were normalized versus the DMSO group and fitted using a four-parameter dose-response curve.
GI50 was calculated as the concentration of compound that gives a response half way between bottom and top plateaus of the fitted curve.
The bottom plateaus of the fitted curve was used to calculate the Growth Inhibition max (GImax), defined as the percentage of the reduction of cells after 48 h upon a saturating dose of compound.
as §1
For the cell growth inhibition (GI) the growth inhibition 50 (GI50) and the growth inhibition max (GImax) are reported. […] The bottom plateaus of the curve was used to calculate the Growth Inhibition max (GImax), defined as the percentage of the reduction of cells after 48 h upon a saturating dose of the administered compound. Compounds with a GI50<100 μM were also tested for their antagonistic activity toward REV-ERB. For these compounds, the EC50 value is provided, calculated as the concentration of compound that gives a response half between the bottom (expression of the reporter in absence of compound) and the top (expression of the reporter at saturating doses of compound) plateaus of the fitted curves (see biological method section for a description of the reported assay). n.d.=not determined; n.t.=not tested.

| Compound | EC50 [1] | GI50 [2] | Emax [2] |
| --- | --- | --- | --- |
| Oc1ccc(CNC2(c3ccccc3F)CCCC2)cc1CN1CCCCC1 [Example 2, 4-[[[1-(2-Fluorophenyl)cyclopentyl]amino]methyl]-2-(1-piperidylmethyl)phenol dihydrochloride] | 45 µM | 30 µM | 55% |
| CN1CCN(Cc2cc(CNC3(c4ccccc4F)CCCCC3)ccc2O)CC1 [Example 3, 4-[[[1-(2-Fluorophenyl)cyclohexyl]amino]methyl]-2-[(4-methylpiperazin-1-yl)methyl]phenol trihydrochloride] | 20 µM | 14 µM | 95% |
| CN1CCN(Cc2cccc(CNC3(c4ccccc4F)CCCC3)c2)CC1 [Example 4, 1-(2-Fluorophenyl)-N-[[3-[(4-methylpiperazin-1-yl)methyl]phenyl]methyl]-cyclopentanamine trihydrochloride] | 47 µM | 30 µM | 73% |
| COc1ccc(CNC2(c3ccccc3F)CCCC2)cc1CN1CCN(C)CC1 [Example 5, 1-(2-Fluorophenyl)-N-[[4-methoxy-3-[(4-methylpiperazin-1-yl)methyl]-phenyl]methyl]cyclopentanamine trihydrochloride] | 43 µM | 26 µM | 75% |
| CN1CCN(Cc2cc(CNC3(c4ccccc4)CCCC3)ccc2O)CC1 [Example 7, 2-[(4-Methylpiperazin-1-yl)methyl]-4-[[(1-phenylcyclopentyl)amino]methyl]-phenol trihydrochloride] | 24 µM | 18 µM | 70% |
| Oc1ccc(CNC2(c3ccccc3F)CCCC2)cc1CN1CCN(c2ccccc2)CC1 [Example 9, 4-[[[1-(2-Fluorophenyl)cyclopentyl]amino]methyl]-2-[(4-phenylpiperazin-1-yl)methyl]phenol trihydrochloride] | 50 µM | 30 µM | 50% |
| CCN1CCN(Cc2cc(CNC3(c4ccccc4F)CCCC3)ccc2O)CC1 [Example 10, 2-[(4-Ethylpiperazin-1-yl)methyl]-4-[[[1-(2-fluorophenyl)cyclopentyl]amino]-methyl]phenol trihydrochloride] | 25 µM | 15 µM | 70% |
| Oc1ccc(CNC2(c3ccccc3F)CCCC2)cc1CN1CCNCC1 [Example 11, 4-[[[1-(2-Fluorophenyl)cyclopentyl]amino]methyl]-2-(piperazin-1-ylmethyl)-phenol] | 40 µM | 24 µM | 70% |
| Oc1ccc(CNC2(c3ccccc3F)CCCC2)cc1CN1CCN(Cc2ccccc2)CC1 [Example 12, 2-[(4-Benzylpiperazin-1-yl)methyl]-4-[[[1-(2-fluorophenyl)cyclopentyl]amino]-methyl]phenol trihydrochloride] | 40 µM | 23 µM | 77% |
| COc1ccccc1C1(NCc2ccc(O)c(CN3CCN(C)CC3)c2)CCCC1 [Example 14, 4-{[1-(2-Methoxy-phenyl)-cyclopentyl-amino]-methyl}-2-(4-methylpiperazin-1-ylmethyl)-phenol trihydrochloride] | 23 µM | 19 µM | 82% |
| CN1CCN(Cc2cc(CNC3(c4ccccc4F)CCC(F)(F)CC3)ccc2O)CC1 [Example 17, 4-[[[4,4-difluoro-1-(2-fluorophenyl)cyclohexyl]amino]methyl]-2-[(4-methyl-piperazin-1-yl)methyl]phenol trihydrochloride] | 21 µM | 18 µM | 90% |
| CN1CCC(Cc2cccc(CNC3(c4ccccc4F)CCCC3)c2)CC1 [Example 18, 1-(2-fluorophenyl)-N-[[3-[1-methyl-4-piperidyl)methyl]phenyl]methyl]cyclopentanamine dihydrochloride] | 8 µM | 2 µM | 95% |
| CN1CCC(Cc2cccc(CN(C)C3(c4ccccc4F)CCCC3)c2)CC1 [Example 19, 1-(2-fluorophenyl)-N-methyl-N-[[3-[(1-methyl-4-piperidyl)methyl]phenyl]methyl]cyclopentanamine dihydrochloride] | 11 µM | 5 µM | 90% |
| CN1CCN(Cc2cc(CNC3(c4ccccc4F)CCN(Cc4ccccc4)CC3)ccc2O)CC1 [Example 20, 4-[[[1-Benzyl-4-(2-fluorophenyl)-4-piperidyl]amino]methyl]-2-[(4-methylpiperazin-1-yl)methyl]phenol tetrahydrochloride] | 12 µM | 11 µM | 92% |
| Fc1ccccc1C1(NCc2cccc(CN3CCCCC3)c2)CCCC1 [Example 21, 1-(2-Fluorophenyl)-N-[[3-(1-piperidylmethyl)phenyl]methyl]cyclopentanamine dihydrochloride] | 35 µM | 50 µM | 76% |
| CN1CCN(Cc2cc(CNC3(c4cccc(F)c4)CCCC3)ccc2O)CC1 [Example 22, 4-[[[1-(3-Fluorophenyl)cyclopentyl]amino]methyl]-2-[(4-methylpiperazin-1-yl)methyl]phenol trihydrochloride] | 15 µM | 14 µM | 80% |
| CN1CCN(Cc2cc(CNC3(c4ccc(F)cc4)CCCC3)ccc2O)CC1 [Example 23, 4-[[[1-(4-Fluorophenyl)cyclopentyl]amino]methyl]-2-[(4-methylpiperazin-1-yl)methyl]phenol trihydrochloride] | 10 µM | 10 µM | 90% |
| CN1CCN(Cc2cc(CNC3(c4cccs4)CCCC3)ccc2O)CC1 [Example 25, 2-[(4-Methylpiperazin-1-yl)methyl]-4-[[[1-(2-thienyl)cyclopentyl]amino]methyl]phenol trihydrochloride] | 29 µM | 18 µM | 70% |
| COc1cccc(C2(NCc3ccc(O)c(CN4CCN(C)CC4)c3)CCCC2)c1 [Example 27, 4-[[[1-(3-Methoxyphenyl)cyclopentyl]amino]methyl]-2-[(4-methylpiperazin-1-yl)methyl]phenol trihydrochloride] | 16 µM | 12 µM | 70% |
| CN1CCC(Cc2cccc(CNC3(c4ccccc4F)CCOCC3)c2)CC1 [Example 30, 4-(2-Fluorophenyl)-N-[[3-[(1-methyl-4-piperidyl)methyl]phenyl]methyl]tetrahydropyran-4-amine dihydrochloride] | 6 µM | 3 µM | 95% |
